Experimental data taken from patent US20060069132A1, “Azolecarboxamide herbicides” (priority 2004, published 2006).

Legend:
[1] = test system: large crabgrass; test: Test B pre-/postemergence herbicide test; type: in vivo, Digitaria sanguinalis; conditions: for Crabgrass, Large plant response rating: postemergence
How it was run: (§1)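 Test chemicals in a non-phytotoxic solvent mixture with surfactant were applied preemergence to seeded species and postemergence to plants 2-18 cm tall (1- to 4-leaf stage); rice and barnyardgrass were also tested in a flooded paddy at the 2-leaf stage. Visual rating versus controls after 13-15 days in greenhouse, scale 0 (no effect) to 100 (complete control).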

[2] = test system: barnyardgrass; test: Test A pre-/postemergence herbicide test; type: in vivo, Echinochloa crus-galli
How it was run: (§2)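 Seeds sown in sandy loam received a preemergence directed soil spray of compound in non-phytotoxic solvent with surfactant; postemergence plants (2–10 cm, one- to two-leaf stage) were sprayed to runoff at the same time. After ~10 days in greenhouse, injury was rated visually versus untreated controls (0 = no effect, 100 = complete control).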

[3] = test system: giant foxtail; test: Test A pre-/postemergence herbicide test; type: in vivo, Setaria faberi
How it was run: as §2

[4] = test system: pigweed; test: Test B pre-/postemergence herbicide test; type: in vivo, Amaranthus retroflexus; conditions: for Pigweed plant response rating: postemergence
How it was run: as §1

[5] = test system: barnyardgrass; test: Test B pre-/postemergence herbicide test; type: in vivo, Echinochloa crus-galli; conditions: for Barnyardgrass plant response rating: postemergence
How it was run: (§3)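 Formulation: non-phytotoxic solvent mix with surfactant. Timing: preemergence on seed and postemergence on 2–18 cm plants, applied concurrently. Readout after 13–15 d greenhouse: visual 0–100 control rating against controls.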

[6] = test system: redroot pigweed; test: Test A pre-/postemergence herbicide test; type: in vivo, Amaranthus retroflexus
How it was run: as §2

[7] = test system: wheat; test: Test B postemergence herbicide test; type: in vivo, Triticum aestivum; parameters: key to Wheat plant response rating: 0 = no effect, 100 = complete control; conditions: postemergence
How it was run: (§4)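 Read-out: visual comparison with controls, scored 0 to 100, where 100 means complete control and 0 no effect. Formulated chemicals were applied postemergence to plants 2–18 cm tall (1- to 4-leaf), or to flooded-paddy plants at the 2-leaf stage, then held 13 to 15 days under glass.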

[8] = test system: morningglory; test: Test A pre-/postemergence herbicide test; type: in vivo, Ipomoea spp.
How it was run: as §2

[9] = test system: blackgrass; test: Test B postemergence herbicide test; type: in vivo, Alopecurus myosuroides; conditions: postemergence
How it was run: (§5)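 Scale 0–100: zero equals no visible effect, 100 complete control, judged by eye relative to controls. Timing: 13 to 15 days in greenhouse post-treatment. Growth stage at spraying: two leaves (paddy) or one to four leaves, 2–18 cm (postemergence).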

[10] = test system: Surinam grass; test: Test B pre-/postemergence herbicide test; type: in vivo, Urochloa decumbens; conditions: for Surinam Grass plant response rating: postemergence
How it was run: as §1

[11] = test system: large crabgrass; test: Test A pre-/postemergence herbicide test; type: in vivo, Digitaria sanguinalis
How it was run: as §2

[12] = test system: lambsquarters; test: Test B pre-/postemergence herbicide test; type: in vivo, Chenopodium album; conditions: for Lambsquarters plant response rating: postemergence
How it was run: as §1

[13] = test system: rice; test: Test B flooded paddy test; type: in vivo, Oryza sativa; conditions: 1000 g ai/ha, scale 0 to 100 (0 no effect, 100 complete control)
How it was run: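 Paddy species grown to the 2-leaf stage under flooding; blackgrass sprayed postemergence at 2–18 cm (1- to 4-leaf stage). Plants kept in a greenhouse for 13 to 15 days, then visually rated against controls on 0 (no effect) to 100 (complete control).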

[14] = test system: barnyardgrass; test: Test B flooded paddy test; type: in vivo, Echinochloa crus-galli; conditions: 1000 g ai/ha, scale 0 to 100 (0 no effect, 100 complete control)
How it was run: as §5

[15] = test system: corn; test: Test B pre-/postemergence herbicide test; type: in vivo, Zea mays; conditions: for Corn plant response rating: postemergence
How it was run: as §1

[16] = test system: ducksalad; test: Test B flooded paddy test; type: in vivo, Heteranthera limosa; conditions: 1000 g ai/ha, scale 0 to 100 (0 no effect, 100 complete control)
How it was run: as §5

[17] = test system: velvetleaf; test: Test A pre-/postemergence herbicide test; type: in vivo, Abutilon theophrasti
How it was run: as §2

[18] = test system: rice; test: Test B pre-/postemergence herbicide test; type: in vivo, Oryza sativa; conditions: 0 = no effect, 100 = complete control, preemergence
How it was run: as §1

[19] = test system: small flower umbrella sedge; test: Test B flooded paddy test; type: in vivo, Cyperus difformis; conditions: 1000 g ai/ha, scale 0 to 100 (0 no effect, 100 complete control)
How it was run: as §5

[20] = test system: wild oat; test: Test B postemergence herbicide test; type: in vivo, Avena fatua; conditions: postemergence
How it was run: as §4

[21] = test system: giant foxtail; test: Test B pre-/postemergence herbicide test; type: in vivo, Setaria faberi; conditions: for Foxtail, Giant plant response rating: postemergence
How it was run: as §1

[22] = test system: cocklebur; test: Test B pre-/postemergence herbicide test; type: in vivo, Xanthium strumarium; conditions: for Cocklebur plant response rating: postemergence
How it was run: as §3

[23] = test system: velvetleaf; test: Test B pre-/postemergence herbicide test; type: in vivo, Abutilon theophrasti; conditions: for Velvetleaf plant response rating: postemergence
How it was run: as §1

[24] = test system: morningglory; test: Test B pre-/postemergence herbicide test; type: in vivo, Ipomoea coccinea; conditions: for Morningglory plant response rating: postemergence
How it was run: as §3

[25] = 125 g ai/ha, 0 = no effect, 100 = complete control, preemergence
[26] = 500 g ai/ha, visual rating, 0 = no effect, 100 = complete control, preemergence
[27] = 125 g ai/ha, visual rating, scale 0 (no effect) to 100 (complete control)
[28] = 500 g ai/ha, scale 0 to 100, 0 is no effect, 100 is complete control
[29] = Postemergence, 500 g ai/ha, 0 to 100 scale, 0 no effect, 100 complete control
[30] = Postemergence, 2000 g ai/ha, 0 to 100 scale, 0 no effect, 100 complete control
[31] = Preemergence, 2000 g ai/ha, visual rating, 0 to 100 scale (0 no effect, 100 complete control)
[32] = preemergence, 500 g ai/ha, visual injury, 0 to 100 scale (0 no effect, 100 complete control)

With `CCn1nc(C(C)(C)C)cc1C(=O)Nc1ccnc(C(=O)N2CC=CC2)c1` [Compound 282] the “Crabgrass, Large plant response rating (0 to 100 scale)” value [1, 25] was 10, the “Plant response rating, Crabgrass, Large” value [1, 26] was 80 and the “Crabgrass, Large plant response rating” value [1, 27] was 10. For the same compound, the “Crabgrass, Large plant response rating” value [1, 28] was 10, the “Barnyardgrass plant response rating” value [2, 29] was 40 and the “Plant response rating, Barnyardgrass” value [2, 30] was 80. The “Barnyardgrass plant response rating” value [2, 31] was 75, the “Barnyardgrass plant response rating” value [2, 32] was 30 and the “Foxtail, Giant plant response rating” value [3, 29] was 20. The “Plant response rating, Foxtail, Giant” value [3, 30] was 25, the “Foxtail, Giant plant response rating” value [3, 31] was 40 and the “Foxtail, Giant plant response rating” value [3, 32] was 10. The “Pigweed plant response rating (0 to 100 scale)” value [4, 25] was 100, the “Plant response rating, Pigweed” value [4, 26] was 100 and the “Pigweed plant response rating” value [4, 27] was 20. The “Pigweed plant response rating” value [4, 28] was 60, the “Barnyardgrass plant response rating (0 to 100 scale)” value [5, 25] was 30 and the “Plant response rating, Barnyardgrass” value [5, 26] was 50. The “Barnyardgrass plant response rating” value [5, 27] was 0, the “Barnyardgrass plant response rating” value [5, 28] was 20 and the “Pigweed plant response rating” value [6, 29] was 75. The “Plant response rating, Pigweed” value [6, 30] was 100, the “Pigweed plant response rating” value [6, 31] was 90 and the “Pigweed plant response rating” value [6, 32] was 90. For the same compound, the “Wheat plant response rating” value [7, 27] was 30, the “Wheat plant response rating” value [7, 28] was 30 and the “Morningglory plant response rating” value [8, 29] was 15. The “Plant response rating, Morningglory” value [8, 30] was 15, the “Morningglory plant response rating” value [8, 31] was 40 and the “Morningglory plant response rating” value [8, 32] was 10. The “Blackgrass plant response rating” value [9, 27] was 20, the “Blackgrass plant response rating” value [9, 28] was 30 and the “Surinam Grass plant response rating (0 to 100 scale)” value [10, 25] was 0. The “Plant response rating, Surinam Grass” value [10, 26] was 20, the “Surinam Grass plant response rating” value [10, 27] was 10 and the “Surinam Grass plant response rating” value [10, 28] was 10. The “Crabgrass, Large plant response rating” value [11, 29] was 10, the “Plant response rating, Crabgrass, Large” value [11, 30] was 25 and the “Crabgrass, Large plant response rating” value [11, 31] was 65. For the same compound, the “Crabgrass, Large plant response rating” value [11, 32] was 40, the “Lambsquarters plant response rating (0 to 100 scale)” value [12, 25] was 100 and the “Plant response rating, Lambsquarters” value [12, 26] was 100. The “Lambsquarters plant response rating” value [12, 27] was 10, the “Lambsquarters plant response rating” value [12, 28] was 60 and the “Rice plant response rating” value [13] was 20. For the same compound, the “Barnyardgrass plant response rating” value [14] was 20, the “Corn plant response rating (0 to 100 scale)” value [15, 25] was 0 and the “Plant response rating, Corn” value [15, 26] was 0. The “Corn plant response rating” value [15, 27] was 10, the “Corn plant response rating” value [15, 28] was 20 and the “Ducksalad plant response rating” value [16] was 80. For the same compound, the “Velvetleaf plant response rating” value [17, 29] was 50, the “Plant response rating, Velvetleaf” value [17, 30] was 50 and the “Velvetleaf plant response rating” value [17, 31] was 45. The “Velvetleaf plant response rating” value [17, 32] was 20, the “Rice plant response rating (0 to 100 scale)” value ([18]; 125 g ai/ha) was 10 and the “Plant response rating, Rice” value ([18]; 500 g ai/ha, visual rating) was 40. For the same compound, the “Sedge, Umbrella plant response rating” value [19] was 0, the “Oat, Wild plant response rating” value [20, 27] was 0 and the “Oat, Wild plant response rating” value [20, 28] was 20. The “Foxtail, Giant plant response rating (0 to 100 scale)” value [21, 25] was 10, the “Plant response rating, Foxtail, Giant” value [21, 26] was 20 and the “Foxtail, Giant plant response rating” value [21, 27] was 20. For the same compound, the “Foxtail, Giant plant response rating” value [21, 28] was 20, the “Cocklebur plant response rating (0 to 100 scale)” value [22, 25] was 0 and the “Plant response rating, Cocklebur” value [22, 26] was 0. The “Cocklebur plant response rating” value [22, 27] was 10, the “Cocklebur plant response rating” value [22, 28] was 20 and the “Velvetleaf plant response rating (0 to 100 scale)” value [23, 25] was 10. For the same compound, the “Plant response rating, Velvetleaf” value [23, 26] was 30, the “Velvetleaf plant response rating” value [23, 27] was 10 and the “Velvetleaf plant response rating” value [23, 28] was 20. For the same compound, the “Morningglory plant response rating (0 to 100 scale)” value [24, 25] was 0, the “Plant response rating, Morningglory” value [24, 26] was 0 and the “Morningglory plant response rating” value [24, 27] was 10. The “Morningglory plant response rating” value [24, 28] was 20.
